In ChEMBL document CHEMBL1151495, “Activity of new penems against defined MRSA strains” (1993):
Values after ≈ are worked out from the molar mass of the structure shown.

Assays:
Assay type in all cases: functional
Staphylococcus aureus [1] = test: In vitro minimum inhibitory concentration against Staphylococcus aureus SN 43.
Staphylococcus aureus [2] = test: In vitro minimum inhibitory concentration against Staphylococcus aureus COL.
Staphylococcus aureus [3] = test: In vitro minimum inhibitory concentration against Staphylococcus aureus SN 7.
Staphylococcus aureus [4] = test: In vitro minimum inhibitory concentration against Staphylococcus aureus CDC1.

Row | MIC (Staphylococcus aureus [1]) [µg/mL] | MIC (Staphylococcus aureus [2]) [µg/mL] | MIC (Staphylococcus aureus [3]) [µg/mL] | MIC (Staphylococcus aureus [4]) [µg/mL] | Structure (SMILES)
1 | > 100 | 100 (≈ 309 µM) | 0.39 (≈ 1.21 µM) | 0.19 (≈ 0.588 µM) | C[C@@H](O)[C@H]1C(=O)N2C(C(=O)O)=C(COc3cnccn3)S[C@H]12
2 | 100 (≈ 347 µM) | 100 (≈ 347 µM) | 0.39 (≈ 1.35 µM) | 0.19 (≈ 0.659 µM) | C[C@@H](O)[C@H]1C(=O)N2C(C(=O)O)=C(COC(N)=O)S[C@H]12 [RITIPENEM]
3 | > 100 | 100 (≈ 285 µM) | 0.39 (≈ 1.11 µM) | 0.19 (≈ 0.541 µM) | C[C@@H](O)[C@H]1C(=O)N2C(C(=O)O)=C(COC(=O)c3cnccn3)S[C@H]12
4 | 100 (≈ 311 µM) | 50 (≈ 156 µM) | 50 (≈ 156 µM) | 0.39 (≈ 1.21 µM) | C[C@@H](O)[C@H]1C(=O)N2C(C(=O)O)=C(COc3ccccc3)S[C@H]12
5 | 100 (≈ 310 µM) | 100 (≈ 310 µM) | 0.78 (≈ 2.42 µM) | 0.19 (≈ 0.589 µM) | C[C@@H](O)[C@H]1C(=O)N2C(C(=O)O)=C(COc3cccnc3)S[C@H]12
6 | 50 (≈ 143 µM) | 25 (≈ 71.6 µM) | 0.39 (≈ 1.12 µM) | 0.09 (≈ 0.258 µM) | C[C@@H](O)[C@H]1C(=O)N2C(C(=O)O)=C(COC(=O)c3ccccc3)S[C@H]12
7 | 50 (≈ 140 µM) | 25 (≈ 70.1 µM) | 0.78 (≈ 2.19 µM) | 0.09 (≈ 0.252 µM) | C[C@@H](O)[C@H]1C(=O)N2C(C(=O)O)=C(COc3cncc(Cl)c3)S[C@H]12
8 | 100 (≈ 285 µM) | 50 (≈ 143 µM) | 0.19 (≈ 0.542 µM) | 0.09 (≈ 0.257 µM) | C[C@@H](O)[C@H]1C(=O)N2C(C(=O)O)=C(COC(=O)c3cccnc3)S[C@H]12
9 | 6.25 (≈ 15.6 µM) | 12.5 (≈ 31.3 µM) | 0.39 (≈ 0.976 µM) | 0.09 (≈ 0.225 µM) | C[C@@H](O)[C@H]1C(=O)N2C(C(=O)O)=C(COC(=O)c3ccc4ccccc4c3)S[C@H]12
10 | 12.5 (≈ 31.2 µM) | 6.25 (≈ 15.6 µM) | 0.19 (≈ 0.475 µM) | 0.09 (≈ 0.225 µM) | C[C@@H](O)[C@H]1C(=O)N2C(C(=O)O)=C(COC(=O)c3cnc4ccccc4c3)S[C@H]12

The next lines start with the compound.

Row | Structure (SMILES) | MIC (Staphylococcus aureus [1]) [µg/mL] | MIC (Staphylococcus aureus [2]) [µg/mL] | MIC (Staphylococcus aureus [3]) [µg/mL] | MIC (Staphylococcus aureus [4]) [µg/mL]
11 | C[C@@H](O)[C@H]1C(=O)N2C(C(=O)O)=C(COC(=O)c3ccc4c(ccc5ccccc54)c3)S[C@H]12 | 6.25 (≈ 13.9 µM) | 3.12 (≈ 6.94 µM) | 0.09 (≈ 0.2 µM) | 0.022 (≈ 0.0489 µM)
12 | C[C@@H](O)[C@H]1C(=O)N2C(C(=O)O)=C(S[C@@H]3CN[C@H](C(=O)N(C)C)C3)[C@H](C)[C@H]12 [MEROPENEM] | 25 (≈ 65.2 µM) | 100 (≈ 261 µM) | 1.56 (≈ 4.07 µM) | 0.19 (≈ 0.495 µM)
13 | C[C@@H](O)[C@H]1C(=O)N2C(C(=O)O)=C(COc3cncc4ccccc34)S[C@H]12 | 12.5 (≈ 33.6 µM) | 6.25 (≈ 16.8 µM) | 3.12 (≈ 8.38 µM) | 0.19 (≈ 0.51 µM)
14 | O=C(O)c1cn(C2CC2)c2cc(N3CCNCC3)c(F)cc2c1=O [CIPROFLOXACIN] |  |  | 0.78 (≈ 2.35 µM) | 0.39 (≈ 1.18 µM)
15 | C[C@@H](O)[C@H]1C(=O)N2C(C(=O)O)=C(COC(=O)c3ccc4ccc5ccccc5c4c3)S[C@H]12 | 6.25 (≈ 13.9 µM) | 6.25 (≈ 13.9 µM) | < 0.011 | < 0.011
16 | COc1cccc(OC)c1C(=O)N[C@@H]1C(=O)N2[C@@H]1SC(C)(C)[C@@H]2C(=O)O [METHICILLIN] | > 100 | > 100 | 6.25 (≈ 16.4 µM) | 3.12 (≈ 8.2 µM)
17 | CC(O)[C@H]1C(=O)N2C(C(=O)O)=C(SCCNC=N)C[C@H]12.O (single isomer, unassigned) [IMIPENEM] | 25 | 25 | 0.19 | 0.09
18 | C[C@@H](O)[C@H]1C(=O)N2C(C(=O)O)=C(COc3c(I)cc(Cl)c4cccnc34)S[C@H]12 | 25 (≈ 46.9 µM) | 6.25 (≈ 11.7 µM) | 0.78 (≈ 1.46 µM) | 0.09 (≈ 0.169 µM)
19 | C[C@@H](O)[C@H]1C(=O)N2C(C(=O)O)=C(COC(=O)c3cn(C4CC4)c4cc(N5CCNCC5)c(F)cc4c3=O)S[C@H]12 | 50 (≈ 89.5 µM) | 6.25 (≈ 11.2 µM) | 1.56 (≈ 2.79 µM) | 0.39 (≈ 0.698 µM)
